{"source": "paper PMC4370448", "about": "“Advanced Enzymology, Expression Profile and Immune Response of Clonorchis sinensis Hexokinase Show Its Application Potential for Prevention and Control of Clonorchiasis” (PLoS Neglected Tropical Diseases, 2015)", "key": {"rCsHK [1]": {"target": "T1, rCsHK (Clonorchis sinensis, UniProt G7YJ23)", "T1 construct": "gene CLF_109217", "T1 sequence (G7YJ23 1-449)": "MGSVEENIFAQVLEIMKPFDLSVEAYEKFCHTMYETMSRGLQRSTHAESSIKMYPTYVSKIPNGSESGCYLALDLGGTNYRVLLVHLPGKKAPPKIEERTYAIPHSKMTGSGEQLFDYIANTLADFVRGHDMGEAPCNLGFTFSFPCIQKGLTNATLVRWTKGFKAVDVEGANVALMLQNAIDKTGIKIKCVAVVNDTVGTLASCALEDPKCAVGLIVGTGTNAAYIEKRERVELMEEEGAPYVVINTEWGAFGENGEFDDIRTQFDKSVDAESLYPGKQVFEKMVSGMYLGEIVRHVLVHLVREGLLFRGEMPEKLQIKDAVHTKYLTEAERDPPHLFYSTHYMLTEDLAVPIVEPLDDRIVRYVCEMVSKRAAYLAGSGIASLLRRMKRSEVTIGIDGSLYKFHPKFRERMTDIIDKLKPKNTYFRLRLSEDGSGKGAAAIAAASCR", "assay": "G6PD-coupled NADPH formation at […] nm, Hill fit", "assay_type": "biochemical", "conditions": "3 mM glucose, 15 mM MgCl2, pH 8.5"}, "rCsHK [2]": {"target": "T1, rCsHK", "assay": "G6PD-coupled NADPH formation at […] nm", "assay_type": "biochemical", "conditions": "read-out: % inhibition at 10 mM"}}, "data": [{"smiles": "Nc1ncnc2c1ncn2[C@@H]1O[C@H](COP(=O)(O)O)[C@@H](O)[C@H]1O", "note": "[AMP]", "values": [{"measurement": "G6PD-coupled NADPH formation at 340 nm, Hill fit", "setting": "rCsHK [1]; 0-5 mM, allosteric activator, mixed K+V+ with respect to ATP", "value": "AMP exhibited a mixed allosteric K+V+ effect"}]}, {"smiles": "Nc1ncnc2c1ncn2[C@@H]1O[C@H](COP(=O)(O)OP(=O)(O)OP(=O)(O)O)[C@@H](O)[C@H]1O", "note": "[ATP]", "values": [{"measurement": "inhibition at 10000 µM", "setting": "rCsHK [2]", "value": 13.8, "unit": "%"}]}, {"smiles": "Nc1ccn([C@@H]2O[C@H](COP(=O)(O)OP(=O)(O)OP(=O)(O)O)[C@@H](O)[C@H]2O)c(=O)n1", "note": "[CTP]", "values": [{"measurement": "inhibition at 10000 µM", "setting": "rCsHK [2]", "value": 8.6, "unit": "%"}]}, {"smiles": "C=C(OP(=O)(O)O)C(=O)O", "note": "[PEP]", "values": [{"measurement": "G6PD-coupled NADPH formation at 340 nm, Hill fit", "setting": "rCsHK [1]; 0-10 mM, allosteric activator, mixed K+V+ with respect to ATP", "value": "PEP displayed allosteric activation of rCsHK with respect to ATP"}]}, {"smiles": "Cc1cn([C@H]2C[C@H](O)[C@@H](COP(=O)(O)OP(=O)(O)OP(=O)(O)O)O2)c(=O)[nH]c1=O", "note": "[TTP]", "values": [{"measurement": "inhibition at 10000 µM", "setting": "rCsHK [2]", "value": 14.3, "unit": "%"}]}, {"smiles": "O=C(O)CC(O)(CC(=O)O)C(=O)O", "note": "[citrate]", "values": [{"measurement": "G6PD-coupled NADPH formation at 340 nm, Hill fit", "setting": "rCsHK [1]; 0-10 mM, allosteric, K+V+ activator at 5 and 10 mM, net inhibition (K-V+) at 2 mM, with respect to ATP", "value": "Citrate exhibited an unusual mixed allosteric effect on rCsHK with respect to ATP"}]}]}
